Reference: the NIST ThermoML archive (doi:10.1021/je5009679)

Conditions: Liquid; for viscosity: Concentric cylinders viscometry

CCCC[n+]1ccn(C)c1.O=S(=O)([N-]S(=O)(=O)C(F)(F)F)C(F)(F)F
101.33 kPa
Conditions | viscosity [mPa·s]
293.15 K | 63.41
303.15 K | 41.26
313.15 K | 28.46
323.15 K | 20.58
333.15 K | 15.47
343.15 K | 12
353.15 K | 9.562
363.15 K | 7.788
373.15 K | 6.469

Conditions | mass density [kg/m3]
293.15 K, 101.33 kPa, Vibrating tube method | 1440.9
303.15 K, 101.33 kPa, Vibrating tube method | 1431.6
311.8 K, 10000 kPa, Bellows volumetry | 1430.7
311.8 K, 20000 kPa, Bellows volumetry | 1437.5
311.8 K, 30000 kPa, Bellows volumetry | 1444.6
311.8 K, 40000 kPa, Bellows volumetry | 1451.2
311.8 K, 50000 kPa, Bellows volumetry | 1457.5
311.8 K, 60000 kPa, Bellows volumetry | 1463.6
311.8 K, 70000 kPa, Bellows volumetry | 1469.5
311.8 K, 80000 kPa, Bellows volumetry | 1475.2
311.8 K, 90000 kPa, Bellows volumetry | 1480.5
311.8 K, 100000 kPa, Bellows volumetry | 1485.7
311.8 K, 110000 kPa, Bellows volumetry | 1490.9
311.8 K, 120000 kPa, Bellows volumetry | 1496
311.8 K, 130000 kPa, Bellows volumetry | 1500.9
311.8 K, 140000 kPa, Bellows volumetry | 1505.6
311.8 K, 150000 kPa, Bellows volumetry | 1510.2
311.8 K, 160000 kPa, Bellows volumetry | 1514.8
311.8 K, 170000 kPa, Bellows volumetry | 1519.3
311.8 K, 180000 kPa, Bellows volumetry | 1523.5
311.8 K, 190000 kPa, Bellows volumetry | 1527.7
311.8 K, 200000 kPa, Bellows volumetry | 1531.8
313.15 K, 101.33 kPa, Vibrating tube method | 1422.1
323.15 K, 101.33 kPa, Vibrating tube method | 1412.6
331.9 K, 10000 kPa, Bellows volumetry | 1412.5
331.9 K, 20000 kPa, Bellows volumetry | 1420.1
331.9 K, 30000 kPa, Bellows volumetry | 1427.4
331.9 K, 40000 kPa, Bellows volumetry | 1434.5
331.9 K, 50000 kPa, Bellows volumetry | 1441.1
331.9 K, 60000 kPa, Bellows volumetry | 1447.6
331.9 K, 70000 kPa, Bellows volumetry | 1453.6
331.9 K, 80000 kPa, Bellows volumetry | 1459.5
331.9 K, 90000 kPa, Bellows volumetry | 1464.9
331.9 K, 100000 kPa, Bellows volumetry | 1470.5
331.9 K, 110000 kPa, Bellows volumetry | 1476
331.9 K, 120000 kPa, Bellows volumetry | 1481.1
331.9 K, 130000 kPa, Bellows volumetry | 1486.2
331.9 K, 140000 kPa, Bellows volumetry | 1491.2
331.9 K, 150000 kPa, Bellows volumetry | 1495.9
331.9 K, 160000 kPa, Bellows volumetry | 1500.5
331.9 K, 170000 kPa, Bellows volumetry | 1505.2
331.9 K, 180000 kPa, Bellows volumetry | 1509.6
331.9 K, 190000 kPa, Bellows volumetry | 1513.9
331.9 K, 200000 kPa, Bellows volumetry | 1518.3
333.15 K, 101.33 kPa, Vibrating tube method | 1403.4
343.15 K, 101.33 kPa, Vibrating tube method | 1394
352 K, 10000 kPa, Bellows volumetry | 1394
352 K, 20000 kPa, Bellows volumetry | 1402.4
352 K, 30000 kPa, Bellows volumetry | 1410
352 K, 40000 kPa, Bellows volumetry | 1417.4
352 K, 50000 kPa, Bellows volumetry | 1424.3
352 K, 60000 kPa, Bellows volumetry | 1431.2
352 K, 70000 kPa, Bellows volumetry | 1437.5
352 K, 80000 kPa, Bellows volumetry | 1443.8
352 K, 90000 kPa, Bellows volumetry | 1449.5
352 K, 100000 kPa, Bellows volumetry | 1455.3
352 K, 110000 kPa, Bellows volumetry | 1460.8
352 K, 120000 kPa, Bellows volumetry | 1466.3
352 K, 130000 kPa, Bellows volumetry | 1471.5
352 K, 140000 kPa, Bellows volumetry | 1476.5
352 K, 150000 kPa, Bellows volumetry | 1481.4
352 K, 160000 kPa, Bellows volumetry | 1486.3
352 K, 170000 kPa, Bellows volumetry | 1491
352 K, 180000 kPa, Bellows volumetry | 1495.8
352 K, 190000 kPa, Bellows volumetry | 1500.2
352 K, 200000 kPa, Bellows volumetry | 1504.7
353.15 K, 101.33 kPa, Vibrating tube method | 1384.8
363.15 K, 101.33 kPa, Vibrating tube method | 1375.6
372.2 K, 10000 kPa, Bellows volumetry | 1376.1
372.2 K, 20000 kPa, Bellows volumetry | 1384.9
372.2 K, 30000 kPa, Bellows volumetry | 1393.3
372.2 K, 40000 kPa, Bellows volumetry | 1401.1
372.2 K, 50000 kPa, Bellows volumetry | 1408.4
372.2 K, 60000 kPa, Bellows volumetry | 1415.5
372.2 K, 70000 kPa, Bellows volumetry | 1422.1
372.2 K, 80000 kPa, Bellows volumetry | 1428.4
372.2 K, 90000 kPa, Bellows volumetry | 1434.4
372.2 K, 100000 kPa, Bellows volumetry | 1440.3
372.2 K, 110000 kPa, Bellows volumetry | 1446.2
372.2 K, 120000 kPa, Bellows volumetry | 1452
372.2 K, 130000 kPa, Bellows volumetry | 1457.4
372.2 K, 140000 kPa, Bellows volumetry | 1462.6
372.2 K, 150000 kPa, Bellows volumetry | 1467.8
372.2 K, 160000 kPa, Bellows volumetry | 1472.5
372.2 K, 170000 kPa, Bellows volumetry | 1477.5
372.2 K, 180000 kPa, Bellows volumetry | 1482.1
372.2 K, 190000 kPa, Bellows volumetry | 1487
372.2 K, 200000 kPa, Bellows volumetry | 1491.4
373.15 K, 101.33 kPa, Vibrating tube method | 1366.7
392.4 K, 10000 kPa, Bellows volumetry | 1358.5
392.4 K, 20000 kPa, Bellows volumetry | 1367.8
392.4 K, 30000 kPa, Bellows volumetry | 1376.7
392.4 K, 40000 kPa, Bellows volumetry | 1385
392.4 K, 50000 kPa, Bellows volumetry | 1392.8
392.4 K, 60000 kPa, Bellows volumetry | 1400.2
392.4 K, 70000 kPa, Bellows volumetry | 1407.2
392.4 K, 80000 kPa, Bellows volumetry | 1414
392.4 K, 90000 kPa, Bellows volumetry | 1420.7
392.4 K, 100000 kPa, Bellows volumetry | 1426.6
392.4 K, 110000 kPa, Bellows volumetry | 1432.6
392.4 K, 120000 kPa, Bellows volumetry | 1438.2
392.4 K, 130000 kPa, Bellows volumetry | 1443.8
392.4 K, 140000 kPa, Bellows volumetry | 1449.2
392.4 K, 150000 kPa, Bellows volumetry | 1454.4
392.4 K, 160000 kPa, Bellows volumetry | 1459.3
392.4 K, 170000 kPa, Bellows volumetry | 1464.5
392.4 K, 180000 kPa, Bellows volumetry | 1469.2
392.4 K, 190000 kPa, Bellows volumetry | 1474.1
392.4 K, 200000 kPa, Bellows volumetry | 1478.8
412.1 K, 10000 kPa, Bellows volumetry | 1341.1
412.1 K, 20000 kPa, Bellows volumetry | 1351
412.1 K, 30000 kPa, Bellows volumetry | 1360.4
412.1 K, 40000 kPa, Bellows volumetry | 1369.2
412.1 K, 50000 kPa, Bellows volumetry | 1377.5
412.1 K, 60000 kPa, Bellows volumetry | 1385.1
412.1 K, 70000 kPa, Bellows volumetry | 1392.6
412.1 K, 80000 kPa, Bellows volumetry | 1399.6
412.1 K, 90000 kPa, Bellows volumetry | 1406.1
412.1 K, 100000 kPa, Bellows volumetry | 1412.5
412.1 K, 110000 kPa, Bellows volumetry | 1418.8
412.1 K, 120000 kPa, Bellows volumetry | 1424.8
412.1 K, 130000 kPa, Bellows volumetry | 1430.5
412.1 K, 140000 kPa, Bellows volumetry | 1436.2
412.1 K, 150000 kPa, Bellows volumetry | 1441.4
412.1 K, 160000 kPa, Bellows volumetry | 1446.8
412.1 K, 170000 kPa, Bellows volumetry | 1451.9
412.1 K, 180000 kPa, Bellows volumetry | 1456.9
412.1 K, 190000 kPa, Bellows volumetry | 1461.6
412.1 K, 200000 kPa, Bellows volumetry | 1466.6
